In publication PMC4085599, “Preliminary Studies on Validation of Calu-3 Cell Line as a Model for Screening Respiratory Mucosa Irritation and Toxicity” (Pharmaceutics, 2014):
Like-named read-outs stand apart in the source and are kept apart here.

What was measured:
eye = tested on: eye; design: method as in PMID 12140180; details: ECETOC eye irritation data bank, ref [12], cited from earlier work; for European Union Irritation Class: Non-Irritating / European Union Irritation Class: R41 Risk of Serious Damage to Eye / European Union Irritation Class: R36 Irritating to Eye: tick = compound belongs to this class
[1] = MTT cell viability assay on Calu-3 cells after exposure to test solutions; assay type: cell-based, Human; details: human, Calu-3 cells, 60 min incubation, MTT, relative to negative control, n = 4, read-out: Calu-3 %Viability ± SD; for viability at 60 min, 0.2 % w/v: 0.2% w/v test solution; for viability at 60 min, 1 % w/v: 1.0% w/v test solution
Experimental: (§1) The Calu-3 cells were used at passages 5–10. They were cultured in 96-well plates (Fisher Scientific) in 1:1 DMEM/F-12 supplemented with 10% FBS, 1% Glutamax®, 100 U/mL penicillin, and […] streptomycin using our previously described method. The tissue culture medium was changed every two days.
(§2) Irritant selection, concentration and exposure time were based on mucociliary clearance time and published work in which the compounds were used. […] In order to provide a basis for comparison with other published work using other models three concentrations of the chemicals were selected (0.2%, 0.4% and 1.0%). To initiate the experiments, the cells were washed 3 times with PBS and allowed to equilibrate in 100 µL of buffered DMEM/F-12 (without phenol red) for 30 min. […] Cells were observed under the microscope for detachment before discarding the test solutions. Subsequently, the effect of the test compounds on the cells was determined using MTT assay.
(§3) Cell viability screening was based on cellular mitochondrial dehydrogenase (MDH) activity, measured by MTT reduction and conversion to blue formazan salt that was quantified after extraction from cells. MTT was used for predicting respiratory irritation because several studies have shown correlation between reduction in cell viability, decrease in epithelial electrical resistance and increases in biomarkers such as IL-1α and IL-1β. Cells grown in 96-well plates were used for the studies. After exposure of the cells to the solution of test compounds, the solutions were discarded and 100 μL of MTT (5.0 mg/mL) added to each well and incubated for 3 h at 37 °C. Subsequently, the MTT solution was removed and replaced with 100 μL isopropyl alcohol. The plates were then wrapped in aluminium foil and incubated for 2 h at 37 °C in order to extract formazan from the cells. Extracted formazan salt was quantified spectrophotometrically at 570 nm using Synergy™ HT multimode microplate reader (BioTek Instruments Incorporated). The absorbance of isopropyl alcohol (100 μL) was used as blank. The reduction of cell viability in treated cells was compared to negative control (cells incubated with DMEM/F-12) and expressed as a percentage.
(§4) Data acceptance criteria, calculation steps, interpretation and prediction model was done using the ECVAM Skin irritation Validation Study as contained in Standard Operating Procedure of Validation of the EpiSkin™ Test Method ^15 min–42 h for the prediction of acute skin irritation of chemicals. This was chosen because the model, as well as the cell viability assay method (MTT) has been accepted by intergovernmental agencies as being able to distinguish between irritants and non-irritants. However, we modified drug exposure time to reflect respiratory route of administration (15–60 min). […] Test compounds with mean relative viability values of 50% and below were considered irritant (I); those above 50% were considered non-irritant (NI) according to the ECVAM protocol.

Calu-3 cells = test: as above; assay type: cell-based, Human; details: for Calu-3 model prediction (irritant if viability 50% and below) compared with European Union class / Calu-3 cells killed: 60 min exposure; for Calu-3 model prediction (irritant if viability 50% and below) compared with European Union class: ECVAM protocol; for Calu-3 %Viability ± SD: 60 min incubation, MTT, relative to negative control, n = 4; for Calu-3 cells killed: 0.2% w/v
Experimental: as §1, §2, §3, §4

Arion lusitanicus = tested on: Arion lusitanicus; design: method as in Adriaens and Remon (2002) [12]; details: slug mucosal irritation model; ref Adriaens and Remon (2002) [12]; cited from earlier work
[2] = design: method as in earlier work; details: ref [19],[20], cited from earlier work

| Compound | European Union Irritation Class: Non-Irritating (eye) | viability at 60 min, 0.2 % w/v [1] | viability at 60 min, 1 % w/v [1] | Calu-3 model prediction (irritant if viability 50% and below) compared with European Union class (Calu-3 cells; 0.2% w/v test solution) | Calu-3 %Viability ± SD (Calu-3 cells; 0.2% w/v test solution) | SMI model prediction compared with European Union class (Arion lusitanicus) | Calu-3 model prediction (irritant if viability 50% and below) compared with European Union class (Calu-3 cells; 1.0% w/v test solution) | Log p Octanol–Water [2] | Calu-3 %Viability ± SD (Calu-3 cells; 1.0% w/v test solution) | European Union Class (eye; as listed in Table 2) | European Union Class (eye; as listed in Table 3) | European Union Irritation Class: R41 Risk of Serious Damage to Eye (eye) | Calu-3 cells killed (Calu-3 cells) | Calu-3 %Viability ± SD (Calu-3 cells; 1.0% w/v test solution, listed as sodium hydroxide) | European Union Irritation Class: R36 Irritating to Eye (eye) | Calu-3 %Viability ± SD (Calu-3 cells; 1.0% w/v test solution, listed as sodium dodecyl sulphate USP) | Calu-3 %Viability ± SD (Calu-3 cells; 0.2% w/v test solution, listed as acetone) | Log p Octanol–Water ([2]; listed as acetone) |
| --- | --- | --- | --- | --- | --- | --- | --- | --- | --- | --- | --- | --- | --- | --- | --- | --- | --- | --- |
| CC(=O)CC(C)C [Methyl isobutyl ketone] | √ | 73.2 ± 7.4% | 90.3 ± 7.1% | correctly identified as non-irritant | no significant effect on the cell viability | wrongly classified | – | – | – | – | – | – | – | – | – | – | – | – |
| Cc1ccccc1 [Toluene] | √ | 85.7 ± 13% | 110 ± 6.6% | – | – | – | – | – | – | – | – | – | – | – | – | – | – | – |
| CCCC(C)CO (centres unmarked) [2-Methyl-1-pentanol] | √ | 95.3 ± 13.1% | 2.9 ± 0.2% | correctly predicted | 95.0 ± 13.1% | – | false positive | 1.75 | – | – | – | – | – | – | – | – | – | – |
| PEG 400 | √ | – | – | correctly predicted | 91.5 ± 4.6% | – | – | −1.21 | 92.2 ± 15.9% | – | – | – | – | – | – | – | – | – |
| [Na+].[OH-] [Sodium hydroxide] | – | – | – | – | 4.6 ± 0.4% | – | correctly predicted | 0 | 14.9 ± 1.2% | R41 | R41 | √ | about 95% | less than 17% | – | – | – | – |
| Nc1ccc(F)cc1 [4-Fluoroaniline] | – | 115 ± 5.9% | 75.6 ± 10.9% | false negatives | – | – | false negatives | – | – | R41 | R41 | √ | – | – | – | – | – | – |
| CCCCCCCCCCCCOS(=O)(=O)[O-].[Na+] [Sodium dodecyl sulphate USP] | – | – | – | correctly predicted | 4.3 ± 0.1% | over-predictions | correctly predicted | 1.60 | 9.0 ± 0.1% | R36 | R36 | – | more than 90% | – | √ | less than 17% | – | – |
| CCO [Anhydrous ethanol] | √ | – | – | correctly predicted | 99.1 ± 3.9% | – | – | – | 90.3 ± 8.0% | – | – | – | – | – | – | – | – | – |
| COCC(O)CO (centres unmarked) [3-Methoxy-1,2-propanediol] | √ | 92.6 ± 4.1% | 90.7 ± 4.3% | correctly predicted | – | – | – | −1.20 | – | – | – | – | – | – | – | – | – | – |
| O=C([O-])C(=O)[O-].[Na+].[Na+] [Sodium oxalate] | – | – | – | false negative | 65.4 ± 4.0% | – | false negatives | – | 64.5 ± 11.5% | R41 | R41 | √ | – | – | – | – | – | – |
| OCC(O)CO [Glycerol] | √ | 85.6 ± 8.7% | 86.5 ± 7% | correctly predicted | – | – | – | – | – | – | – | – | – | – | – | – | – | – |
| CC(C)=O [Acetone] | – | – | – | false negative | 100.4 ± 13.7% | false negative | false negatives | −0.24 | 95.4 ± 16.5% | R36 | R36 | – | – | – | √ | – | no significant effect on the cell viability | negative Log p values |
| OC1CCCCC1 [Cyclohexanol] | – | – | – | false negatives | 89.9 ± 14.3% | – | false negatives | 1.23 | 78.7 ± 11.7% | R41 | R41 | √ | – | – | – | – | – | – |
| Tween 20 | √ | – | – | correctly predicted | 57.1 ± 8.1% | correct predictions | false positive | 2.39 | 43.9 ± 2.5% | – | – | – | – | – | – | – | – | – |
| c1c[nH]cn1 [Imidazole] | – | – | – | – | – | – | – | – | – | R41 | R41 | – | – | – | – | – | – | – |
| PEG 600 | √ | – | – | correctly predicted | 85.9 ± 13.4% | – | – | −1.21 | 81.7 ± 10.8% | – | – | – | – | – | – | – | – | – |
